Reference: patent publication EP0812190B1 (priority 1993, dated 1995)
Structures can show the parent of a compound that is named as a salt. Where two headings read alike, the source gives them in different places.

Tests used:
[1] = Comparative stability: visual inspection of color and form; format: physicochemical
Method: Comparative stability studies were carried out under sets of several accelerating conditions: I) heating at 80°C for 72, 96 or 144 hours; and II) reflux in isopropanol for 30 hours. The degradation products developed were measured by HPLC and confirmed by TLC. The results are presented in Table 9 with the relative retention time (relative to the PAI peak; RRT) as an area percentage relative to total integrated peak area.
The salts were submitted to visual inspection of color and form.

[2] = target: T1, MAO-B (Rattus norvegicus, UniProt P19643); test: in vivo; details: rat
T1 sequence (P19643 1-520): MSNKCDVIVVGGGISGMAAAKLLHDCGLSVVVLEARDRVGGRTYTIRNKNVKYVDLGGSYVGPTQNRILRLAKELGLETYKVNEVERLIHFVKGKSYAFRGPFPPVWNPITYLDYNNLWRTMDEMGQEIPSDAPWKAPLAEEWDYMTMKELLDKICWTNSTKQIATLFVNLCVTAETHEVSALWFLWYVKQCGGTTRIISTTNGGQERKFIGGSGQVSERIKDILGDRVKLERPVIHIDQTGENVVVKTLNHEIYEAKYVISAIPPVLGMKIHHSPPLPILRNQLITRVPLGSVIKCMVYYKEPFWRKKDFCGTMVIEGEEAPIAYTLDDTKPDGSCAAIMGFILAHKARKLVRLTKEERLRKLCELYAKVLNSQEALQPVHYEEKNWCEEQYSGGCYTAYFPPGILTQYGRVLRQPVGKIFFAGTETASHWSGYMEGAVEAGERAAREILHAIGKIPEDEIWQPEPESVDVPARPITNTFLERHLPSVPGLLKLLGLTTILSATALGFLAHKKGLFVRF
Method: Groups of three rats were used for each dose level of inhibitor, and MAO activity determined in brain and liver using the general technique described above. The amount of protein in each incubation was determined using the Folin-Lowry method, and enzyme activity calculated as nmol of substrate metabolized per hour of incubation for each mg of protein. Activity of MAO in tissues from animals treated with inhibitors was expressed as a percentage of the enzyme activity in a group of control animals administered vehicle (water for oral administration, 0.9% saline for ip injection) and killed as above.

[3] = tested on: heart rate, blood pressure, cardiovascular effects of tyramine; details: cited from earlier work
[4] = target: T2, MAO-A (Rattus norvegicus, UniProt P21396); test: Inhibition of MAO activity in vivo, acute treatment, MAO-A; parameters: MAO activity determined in brain and liver using the general technique described above; from tissue; host or cells: brain and liver of treated rats; details: dose producing 50% inhibition, rat
T2 sequence (P21396 1-526): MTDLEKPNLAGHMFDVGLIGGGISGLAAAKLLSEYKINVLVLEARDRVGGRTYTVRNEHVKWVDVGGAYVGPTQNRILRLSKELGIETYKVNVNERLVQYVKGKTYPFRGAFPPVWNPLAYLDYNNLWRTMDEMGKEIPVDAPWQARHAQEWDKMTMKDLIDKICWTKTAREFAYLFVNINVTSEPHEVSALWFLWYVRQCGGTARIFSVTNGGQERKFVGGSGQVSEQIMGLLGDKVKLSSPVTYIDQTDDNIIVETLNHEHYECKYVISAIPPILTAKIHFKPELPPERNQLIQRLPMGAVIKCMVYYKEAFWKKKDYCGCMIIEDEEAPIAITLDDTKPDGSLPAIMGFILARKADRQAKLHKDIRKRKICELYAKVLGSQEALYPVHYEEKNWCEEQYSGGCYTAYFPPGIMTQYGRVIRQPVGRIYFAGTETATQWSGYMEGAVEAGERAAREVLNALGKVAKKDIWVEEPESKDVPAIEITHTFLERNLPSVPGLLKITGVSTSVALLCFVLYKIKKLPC

[5] = target: T1, MAO-B; test: Rat brain MAO inhibition by propargylamines (Table IA), MAO-B; format: biochemical; parameters: in a rat brain preparation of MAO; from tissue; host or cells: rat brain preparation; details: ratio MAO-A / MAO-B for one epimer
[6] = Thermo-gravimetric analysis of PAI salts; format: physicochemical; details: 10°C/min
Method: (§1) The melting range was measured with an automatic apparatus (Mettler FP 80) and thermo-gravimetric analysis was performed on a Mettler TA 3000 system at a rate of 10°C/min in the applicable range. […] The pH was measured in a 1% aqueous solution of the PAI salts.

[7] = pH of 1% aqueous solution of PAI salts; format: physicochemical
Method: as §1

[8] = tested on: α-MpT-induced hypokinesia; test: Reversal of α-MpT-induced hypokinesia in rats; format: in vivo; details: α-MpT 100 mg/kg i.p. alone
Method: The drug α-MpT is assumed to inhibit the formation of L-DOPA from tyrosine, and consequently the formation of dopamine itself. Lack of CNS dopamine is expressed as hypoactivity. Six month-old male Wistar rats (from Harlan Orkack, UK) were pretreated with saline, [R] […] Two hours later they received i.p. α-MpT at a dose of 100 mg/kg in 0.3-0.5 mL. Controls received saline. Following this, motor activity was recorded in a computerized activity cage for the duration of 10 hours. […] (+)PAI Mesylate at 2 mg/kg.

[9] = tested on: MPTP-induced striatal dopamine depletions; test: Suppression of MPTP-induced dopaminergic toxicity (striatal DA and DOPAC); format: in vivo, mice; details: striatum
Method: Brains were removed and corpora striata dissected on an ice-cold glass plate and frozen on dry ice. Striatal tissues were homogenized in 0.1 M perchloric acid, and deproteinized aliquots containing dihydroxybenzylamine as an internal standard were assayed for dopamine and its major metabolite 3,4-dihydroxy-phenylacetic acid (DOPAC) using HPLC with electrochemical detection.

[10] = tested on: amphetamine-induced stereotype behavior; details: control senescent rats; 0.5 mg/kg/day in drinking water; lateral head movements over 1 minute, 45 min after amphetamine 0.5 mg/kg s.c.
Method: The extent of this behavior is rated in accordance with the number of lateral head movements over a period of 1 minute.
Following that, amphetamine was injected s.c. at a dose of 0.5 mg/kg. 45 minutes later, lateral head movements were counted.

[11] = tested on: rabbit jejunum; test: Tyramine potentiation in rabbit jejunum preparation
[12] = tested on: guinea-pig ileum
[13] = tested on: guinea-pig ileum; test: tissue or blood; details: Cavia porcellus, read-out: Percent relaxation
[14] = tested on: guinea-pig ileum; test: tissue or blood; details: Cavia porcellus, read-out: Percent relaxation; remark: listed apart in the source
[15] = tested on: haloperidol-induced catalepsy
Method: (+)PAI mesylate, or racemic-PAI mesylate. All drugs were administered i.p. in a volume of 0.2 mL. Two hours later, haloperidol was injected s.c. at a dose of 6mg/kg in a volume of 0.1-0.2 mL. Motor coordination tests were made at 3 hours after giving haloperidol, that is, 5 hours after administering the presumed protective drugs.
Motor coordination tests and rigidity were quantified according to three different parameters: (a) ability to walk the length of a horizontal rod, 80 cm-long; (b) ability co climb down, face down, a vertical rod, 80 cm-long; (c) duration of immobility in an unnatural sitting posture whereby the abdomen of the mouse is pressed against a "wall." Full performance as in haloperidol-untreated mice is given the score of 4 in each test, or a total of 12 in all tests. Poor performance is given a score from 1 to 3.

[16] = tested on: NMDA-induced cell death of cerebellum cells; test: cells; details: Rattus norvegicus, 24 h
Method: Procedures: Cultures of mechanically dissociated neonatal rat cerebellum. […] The cerebella are then dissociated after 20-25 passages through a sterile 13 gauge, 10 cm long stainless steel needle attached to a 5 ml syringe with an inserted 45 µm pore size nylon sieve. The dissociated cells are centrifuged at 200g for 5 minutes, the supernatant discarded and the cells resuspended in enriched medium. The cell viability is determined by the trypan blue exclusion test. […] After 4 days in culture, the media are replaced with media containing the desired test compounds. Experiments are done in duplicate and repeated 2 or 3 times. […] Nerve cell survival is evaluated by phase contrast microscopy and trypan blue staining after 24 h.

[17] = comparative animal tests versus (-)-deprenyl

chloride
appearance ([1]; 80°C/72h): white powder
appearance ([1]; 80°C/144h): white powder
appearance ([1]; reflux in iPrOH/30h): off white powder

C#CCNC1CCc2ccccc21 (racemic) [Rac, N-propargyl-1-aminoindan, reference compound]
IC-50 MAO-B P.O. BRAIN ([2]; dose producing 50% inhibition, p.o., 2h): 0.29 mg/kg
ED50 ([2]; ip, 1 h, read-out: IC-50 MAO-B I.P. BRAIN): 0.22 mg/kg
ED50 ([2]; ip, 1 h, read-out: IC-50 MAO-B I.P. LIVER): 0.11 mg/kg
ED50 ([2]; po, 2 h, read-out: IC-50 MAO-B P.O. LIVER): 0.09 mg/kg
blood pressure [3, 17]: does not increase blood pressure
tachycardia [3, 17]: no significant tachycardia
IC-50 MAO-A I.P. BRAIN ([4]; i.p., 1h): 2.5 mg/kg
IC-50 MAO-A I.P. LIVER ([4]; i.p., 1h): 5 mg/kg
IC-50 MAO-A P.O. BRAIN ([4]; p.o., 2h): >5 mg/kg
IC-50 MAO-A P.O. LIVER ([4]; p.o., 2h): >5 mg/kg

C#CCN(C)C1CCCc2ccccc21 (single isomer, unassigned) [2-MPAI -, N-Methyl-N-propargyl-1-aminotetralin]
RELATIVE POTENCY A/B [5]: 0.5

C#CCN(C)C1CCCc2ccccc21 (single isomer, unassigned) [2-MPAI +, N-Methyl-N-propargyl-1-aminotetralin]
RELATIVE POTENCY A/B [5]: 8.8

maleate
%Wt. loss [6]: 0.1%
appearance ([1]; 80°C/72h): brown melted
appearance ([1]; 80°C/96h): brown
appearance ([1]; reflux in iPrOH/30h): brown melted
Solubility (water): NLT 1000 mg/ml

tartarate
pH [7]: 5.5
%Wt. loss [6]: LT 0.1%

fumarate
pH [7]: 3.5
%Wt. loss [6]: 0.2%
Solubility (water): 95 mg/mL

phosphate
appearance ([1]; 80°C/72h): brownish powder
appearance ([1]; 80°C/144h): brown powder
appearance ([1]; reflux in iPrOH/30h): brown powder

CC(N)(Cc1ccc(O)cc1)C(=O)O (stereo not drawn) [α-Mpt, α-methyl-p-tyrosine, reference compound]
% of control [8]: 51%
Score (total motor activity, 10 hours) [8]: 8,108±810

tosylate
pH [7]: 4.4
%Wt. loss [6]: LT 0.1%
Solubility (saturated salt water solution): 60 to 70 mg/mL

CN1CC=C(c2ccccc2)CC1 [MPTP, 1-Methyl-phenyl-1,2,3,6-tetrahydropyridine]
DA ([9]; MPTP-HCl 30 mg/kg s.c. alone): 53.1±6.2 ng/mg protein
DOPAC ([9]; MPTP-HCl 30 mg/kg s.c. alone): 3.2±0.3 ng/mg protein

C#CCN[C@H]1CCc2ccccc21 [[S](-)PAI, S-(-)-N-propargyl-1-aminoindan, reference compound]
DOPAC ([9]; drug alone (PAI isomers […] i.p., deprenyl 5 mg/kg i.p.)): 7.5±0.2 ng/mg protein
DA ([9]; drug alone (PAI isomers […] i.p., deprenyl 5 mg/kg i.p.), Mean±S.E.M.): 174.0±4.8 ng/mg protein
DA ([9]; pretreatment one hour before MPTP-HCl 30 mg/kg s.c. (PAI isomers […] i.p., deprenyl 5 mg/kg i.p.), 5 days later): 53.4±6.9 ng/mg protein
DOPAC ([9]; pretreatment one hour before MPTP-HCl 30 mg/kg s.c., 5 days later): 7.0±0.6 ng/mg protein
Stereotype Behavior Rating [10]: totally inactive
Percent relaxation ([11]; PAI HCl enantiomer alone 0.2-4.0 µM): 0%
Percent relaxation ([11]; tyramine 40 µM after 0.2 µM PAI HCl enantiomer): 0%
Percent relaxation ([11]; tyramine 40 µM after 2 µM PAI HCl enantiomer): 35%
Percent relaxation ([11]; tyramine 40 µM after 40 µM PAI HCl enantiomer): 33-50%
gram-tension ([12]; bethanechol 0.8 µM, 400 µM PAI HCl enantiomer): 0 gram-tension
gram-tension ([12]; bethanechol 2 µM, 400 µM enantiomer): 0 gram-tension
gram-tension ([12]; bethanechol 4 µM, 400 µM enantiomer): 0 gram-tension
gram-tension ([12]; bethanechol 20 µM, 400 µM enantiomer): 1.2 gram-tension
gram-tension ([12]; bethanechol 80 µM, 400 µM enantiomer): 2.6 gram-tension
gram-tension ([12]; bethanechol 200 µM, 400 µM enantiomer): 2.6 gram-tension
inhibition at 2 µM [13]: 11%
inhibition at 30 µM [13]: 33%
inhibition at 40 µM [13]: 36%
inhibition at 200 µM [13]: 90%
inhibition at 400 µM [13]: 98%
inhibition at 1000 µM [13]: 100%
inhibition at 60 µM [14]: 60 to 70%
inhibition at 300 µM [14]: 100%

O=C(CCCN1CCC(O)(c2ccc(Cl)cc2)CC1)c1ccc(F)cc1 [Haloperidol, reference compound]
Score+SE ([15]; haloperidol 6mg/kg s.c. alone, 3 hours after): 6.6±0.3
Score+SE ([15]; haloperidol 6mg/kg s.c. alone, 3 hours after, listed as haloperidol): 6.6±0.03

NC[C@H](O)c1ccc(O)c(O)c1 [Norepiniphrine]
Percent relaxation ([11]; 0.002 µM): 100%

NCCc1ccc(O)cc1 [Tyramine]
Percent relaxation ([11]; tyramine alone 40 µM): 0%

C#CCNC1CCc2ccccc21 (racemic) [Rac PAI Mesylate, reference compound]
Score+SE ([15]; 5.0 mg/kg i.p., listed as Racemic PAI mesylate): not active

sulphate
appearance ([1]; 80°C/72h): off white powder
appearance ([1]; 80°C/144h): off white powder
appearance ([1]; reflux in iPrOH/30h): brown powder

C#CCNC1CCc2ccccc21 (racemic) [racemic PAI·HCl, Racemic N-propargyl-1-aminoindan hydrochloride]
potentiation of the cardiovascular effects of tyramine ([3]; in vivo): does not potentiate the cardiovascular effects of tyramine

NCCCNCCCCNCCCN [Spermine, reference compound]
inhibition at 0.01 µM ([16]; read-out: Percent Protection): 65%
viability at 0.01 µM ([16]; read-out: Surviving Cells): 75%

C#CCNC1CCCc2ccccc21 (centres unmarked) [1-PAT R, N-propargyl-1-aminotetralin]
RELATIVE POTENCY A/B [5]: 10

C#CCNC1CCCc2ccccc21 (centres unmarked) [1-PAT S, N-propargyl-1-aminotetralin]
RELATIVE POTENCY A/B [5]: 76
